{"source": "paper PMC6680430", "about": "“Quantitative Prediction of Human Pharmacokinetics and Pharmacodynamics of CKD519, a Potent Inhibitor of Cholesteryl Ester Transfer Protein (CETP)” (Pharmaceutics, 2019)", "key": {"[1]": {"assay": "animal full PK study in hamsters (NCA and PK model)", "assay_type": "in vivo", "conditions": "hamster; for Tmax: median (range)", "method": "(§1) Animal PK data for analysis were collected from preclinical studies performed at ChongKunDang laboratory. All animal experiments were performed with relevant guidelines and regulations, and the protocol was approved by the Institutional Animal Care and Use Committee (IACUC) of ChongKunDang (Approval number: S-13-015). A single dose of CKD519 was administered either orally or via intravenous infusion to hamsters (intravenous dose of 0.5 mg/kg, oral dose of 3, 15, or 45 mg/kg, n = 30); rats (intravenous dose of 0.5 mg/kg, oral dose of 5, 15, or 45 mg/kg, n = 20); and monkeys (intravenous dose of 0.1 mg/kg, oral dose of 1, 5, or 30 mg/kg, n = 16). The identical solution was administered to all animal species in the fasted state. Plasma CKD519 concentration was measured before and at 0.083, 0.25, 0.5, 1, 2, 4, 8, and 24 h after administration in hamsters and rats, and before and at 0.083, 0.25, 0.5, 1, 2, 4, 6, 8, 12, 24, 48, and 72 h after administration in monkeys. Two hamsters given identical doses were sampled in a rotating manner.\n(§2) The plasma samples were stored at −70 °C before the analysis and were thawed at room temperature. […] A sensitive, specific, and validated liquid chromatography coupled with a tandem mass spectrometer (HPLC-MS/MS) assay was used for the determination of CKD519 concentration in animal plasma samples. A structural analogue of CKD519 was used as the internal standard. The validated working range was from 2 ng/mL (the lower limit of quantification, LLOQ) to 20,000 ng/mL. Quality control (QC) samples were analyzed together with the study samples. Intra-day and inter-day precision and accuracy results were within the acceptance criteria based on the Ministry of Food and Drug Safety (MFDS) guidelines. An exploratory data analysis was performed through non-compartmental analysis (NCA) using the NonCompart package (developed by Bae, version 0.4.4) in R (version 3.5.1, The R Foundation, Vienna, Austria).\n(§3) Using the PK data from each species, nonlinear mixed-effect modeling was conducted using NONMEM (version 7.4, Icon Development Solutions, Ellicott City, MD, USA) reflecting the clues from NCA. The first-order conditional estimation method with interaction (FOCE-I) was used whenever applicable. The adequacy of the model was checked using changes in the objective function value (OFV), visual inspection of various diagnostic plots (goodness-of-fit (GOF) plot), and methods of visual predictive check (VPC) and bootstrap were used for the diagnostics on the model stability and parameter reliability. The significance of model improvement was evaluated using a likelihood-ratio test (LRT). In the nested models, the result was considered statistically significant if the OFV decreased more than 3.84 (p-value < 0.05, degree of freedom (df) = 1) and 5.99 (p-value < 0.05, df = 2). The degree of freedom is defined as the gap of the numbers of parameters of the two subsequent models that are being compared. In the case of non-nested models, the Akaike information criteria (AIC) value was used to select the model that best described the data. R (version 3.5.1., R Foundation for Statistical Computing, Vienna, Austria) was used for data preparation, NCA, graphical analysis, model diagnostics, and statistical summaries.\n(§4) Initially, a two-compartment model with first-order absorption was developed to describe the biphasic curve, and several absorption structures (e.g., zero-order with absorption lag time, Weibull-type absorption) were applied to the base model if needed. The change in absolute bioavailability (F) by dose levels was also considered. […]"}, "[2]": {"test_system": "CETP", "assay": "human PK/PD modeling and simulation of CETP inhibition", "quoted_text": "The efficacious dose was defined as the dose accomplishing the threshold in ≥50% of the population, which was determined using the median. Thus, the variability of the parameters was not incorporated in the simulation."}, "[3]": {"assay": "animal full PK study in monkeys (NCA and PK model)", "assay_type": "in vivo, Cynomolgus monkey", "conditions": "monkey; for Tmax: median (range)", "method": "as §1, §2, §3, §4"}, "[4]": {"conditions": "PK model, final estimate (%RSE)"}, "[5]": {"conditions": "intravenous 0.5 mg/kg, NCA, mean ± SD"}, "[6]": {"conditions": "two-compartment PK model, final estimate (%RSE)"}, "[7]": {"conditions": "intravenous 0.1 mg/kg, NCA, mean ± SD"}}, "data": [{"smiles": "COc1cc(F)c(C(C)C)cc1C1=C(CN2C(=O)O[C@H](c3cc(C(F)(F)F)cc(C(F)(F)F)c3)[C@@H]2C)CC(C)(C)CC1", "note": "[CKD519]", "values": [{"measurement": "α (scale parameter of Weibull absorption)", "setting": "[1]; [4]", "value": "4.20 (4.14%)"}, {"measurement": "β (shape parameter of Weibull absorption)", "setting": "[1]; [4]", "value": "2.62 (4.47%)"}, {"measurement": "AUClast", "setting": "[1]; [5]", "value": "8760 ± 635", "unit": "ng·h/mL"}, {"measurement": "V/F * (V for intravenous)", "setting": "[1]; [5]", "value": "138 ± 89.9", "unit": "mL"}, {"measurement": "ke", "setting": "[1]; [5]", "value": "0.0616 ± 0.0446", "unit": "h⁻¹"}, {"measurement": "t1/2", "setting": "[1]; [5]", "value": "16.9 ± 14.1", "unit": "h"}, {"measurement": "Tmax", "setting": "[1]; intravenous 0.5 mg/kg, NCA", "value": "0.083 (0.083–0.083) h"}, {"measurement": "AUClast", "setting": "[1]; oral 3 mg/kg, NCA, mean ± SD", "value": "6140 ± 471", "unit": "ng·h/mL"}, {"measurement": "CL/F", "setting": "[1]; oral 3 mg/kg, NCA, mean ± SD", "value": "34.7 ± 3.08", "unit": "mL/h"}, {"measurement": "Cmax", "setting": "[1]; oral 3 mg/kg, NCA, mean ± SD", "value": "659 ± 89.3", "unit": "ng/mL"}, {"measurement": "V/F", "setting": "[1]; oral 3 mg/kg, NCA, mean ± SD", "value": "1570 ± 163", "unit": "mL"}, {"measurement": "ke", "setting": "[1]; oral 3 mg/kg, NCA, mean ± SD", "value": "0.0223 ± 0.00294", "unit": "h⁻¹"}, {"measurement": "t1/2", "setting": "[1]; oral 3 mg/kg, NCA, mean ± SD", "value": "31.5 ± 4.41", "unit": "h"}, {"measurement": "Tmax", "setting": "[1]; oral 3 mg/kg, NCA", "value": "3.5 (3–4) h"}, {"measurement": "AUClast", "setting": "[1]; oral 15 mg/kg, NCA, mean ± SD", "value": "18800 ± 4310", "unit": "ng·h/mL"}, {"measurement": "CL/F", "setting": "[1]; oral 15 mg/kg, NCA, mean ± SD", "value": "66.6 ± 20.1", "unit": "mL/h"}, {"measurement": "Cmax", "setting": "[1]; oral 15 mg/kg, NCA, mean ± SD", "value": "3250 ± 465", "unit": "ng/mL"}, {"measurement": "V/F", "setting": "[1]; oral 15 mg/kg, NCA, mean ± SD", "value": "2460 ± 162", "unit": "mL"}, {"measurement": "ke", "setting": "[1]; oral 15 mg/kg, NCA, mean ± SD", "value": "0.0268 ± 0.00613", "unit": "h⁻¹"}, {"measurement": "t1/2", "setting": "[1]; oral 15 mg/kg, NCA, mean ± SD", "value": "26.8 ± 5.23", "unit": "h"}, {"measurement": "Tmax", "setting": "[1]; oral 15 mg/kg, NCA", "value": "4 (3–4) h"}, {"measurement": "AUClast", "setting": "[1]; oral 45 mg/kg, NCA, mean ± SD", "value": "26700 ± 2330", "unit": "ng·h/mL"}, {"measurement": "CL/F", "setting": "[1]; oral 45 mg/kg, NCA, mean ± SD", "value": "145 ± 9.52", "unit": "mL/h"}, {"measurement": "Cmax", "setting": "[1]; oral 45 mg/kg, NCA, mean ± SD", "value": "3160 ± 614", "unit": "ng/mL"}, {"measurement": "V/F", "setting": "[1]; oral 45 mg/kg, NCA, mean ± SD", "value": "4330 ± 572", "unit": "mL"}, {"measurement": "ke", "setting": "[1]; oral 45 mg/kg, NCA, mean ± SD", "value": "0.0338 ± 0.00311", "unit": "h⁻¹"}, {"measurement": "t1/2", "setting": "[1]; oral 45 mg/kg, NCA, mean ± SD", "value": "20.7 ± 1.76", "unit": "h"}, {"measurement": "Tmax", "setting": "[1]; oral 45 mg/kg, NCA", "value": "4 (3–6) h"}, {"measurement": "CL", "setting": "[1]; [6]", "value": "0.00377 (7.40%) L/h"}, {"measurement": "Q", "setting": "[1]; [6]", "value": "0.00617 (10.3%) L/h"}, {"measurement": "Vc", "setting": "[1]; [6]", "value": "0.00472 (9.43%) L"}, {"measurement": "Vp", "setting": "[1]; [6]", "value": "0.0924 (9.78%) L"}, {"measurement": "IC50", "setting": "[2]; comparator in vivo IC50 22 nM scaled by in vitro potency ratio, read-out: assumed in vivo IC50", "value": 37, "unit": "nM"}, {"measurement": "IC50 reflected in the PD model", "setting": "[2]; corresponds to 22 nM (reported PD parameter of comparator scenario)", "value": 0.01322, "unit": "µg/mL"}, {"measurement": "IC50 reflected in the PD model", "setting": "[2]; corresponds to 37 nM (in vitro potency ratio scenario)", "value": 0.02224, "unit": "µg/mL"}, {"measurement": "α (scale parameter of Weibull absorption)", "setting": "[3]; [4]", "value": "5.44 (11.8%)"}, {"measurement": "β (shape parameter of Weibull absorption)", "setting": "[3]; [4]", "value": "3.54 (6.50%)"}, {"measurement": "AUClast", "setting": "[3]; [7]", "value": "5150 ± 1530", "unit": "ng·h/mL"}, {"measurement": "V/F * (V for intravenous)", "setting": "[3]; [7]", "value": "3500 ± 1380", "unit": "mL"}, {"measurement": "ke", "setting": "[3]; [7]", "value": "0.0105 ± 0.00836", "unit": "h⁻¹"}, {"measurement": "t1/2", "setting": "[3]; [7]", "value": "104 ± 80.0", "unit": "h"}, {"measurement": "Tmax", "setting": "[3]; intravenous 0.1 mg/kg, NCA", "value": "0.1665 (0.083–0.25) h"}, {"measurement": "AUClast", "setting": "[3]; oral 1 mg/kg, NCA, mean ± SD", "value": "8940 ± 954", "unit": "ng·h/mL"}, {"measurement": "CL/F", "setting": "[3]; oral 1 mg/kg, NCA, mean ± SD", "value": "230 ± 64.6", "unit": "mL/h"}, {"measurement": "Cmax", "setting": "[3]; oral 1 mg/kg, NCA, mean ± SD", "value": "752 ± 148", "unit": "ng/mL"}, {"measurement": "V/F", "setting": "[3]; oral 1 mg/kg, NCA, mean ± SD", "value": "17600 ± 4000", "unit": "mL"}, {"measurement": "ke", "setting": "[3]; oral 1 mg/kg, NCA, mean ± SD", "value": "0.0140 ± 0.0057", "unit": "h⁻¹"}, {"measurement": "t1/2", "setting": "[3]; oral 1 mg/kg, NCA, mean ± SD", "value": "59.9 ± 35.5", "unit": "h"}, {"measurement": "Tmax", "setting": "[3]; oral 1 mg/kg, NCA", "value": "5.5 (5–6) h"}, {"measurement": "AUClast", "setting": "[3]; oral 5 mg/kg, NCA, mean ± SD", "value": "29500 ± 4840", "unit": "ng·h/mL"}, {"measurement": "CL/F", "setting": "[3]; oral 5 mg/kg, NCA, mean ± SD", "value": "309 ± 77.3", "unit": "mL/h"}, {"measurement": "Cmax", "setting": "[3]; oral 5 mg/kg, NCA, mean ± SD", "value": "4700 ± 1100", "unit": "ng/mL"}, {"measurement": "V/F", "setting": "[3]; oral 5 mg/kg, NCA, mean ± SD", "value": "50500 ± 16900", "unit": "mL"}, {"measurement": "ke", "setting": "[3]; oral 5 mg/kg, NCA, mean ± SD", "value": "0.00707 ± 0.00412", "unit": "h⁻¹"}, {"measurement": "t1/2", "setting": "[3]; oral 5 mg/kg, NCA, mean ± SD", "value": "125 ± 64.6", "unit": "h"}, {"measurement": "Tmax", "setting": "[3]; oral 5 mg/kg, NCA", "value": "7 (6–8) h"}, {"measurement": "AUClast", "setting": "[3]; oral 30 mg/kg, NCA, mean ± SD", "value": "79100 ± 15600", "unit": "ng·h/mL"}, {"measurement": "CL/F", "setting": "[3]; oral 30 mg/kg, NCA, mean ± SD", "value": "999 ± 123", "unit": "mL/h"}, {"measurement": "Cmax", "setting": "[3]; oral 30 mg/kg, NCA, mean ± SD", "value": "10200 ± 2390", "unit": "ng/mL"}, {"measurement": "V/F", "setting": "[3]; oral 30 mg/kg, NCA, mean ± SD", "value": "67800 ± 44900", "unit": "mL"}, {"measurement": "ke", "setting": "[3]; oral 30 mg/kg, NCA, mean ± SD", "value": "0.0194 ± 0.0104", "unit": "h⁻¹"}, {"measurement": "t1/2", "setting": "[3]; oral 30 mg/kg, NCA, mean ± SD", "value": "46.3 ± 26.8", "unit": "h"}, {"measurement": "Tmax", "setting": "[3]; oral 30 mg/kg, NCA", "value": "8 (8–8) h"}, {"measurement": "CL", "setting": "[3]; [6]", "value": "0.0344 (24.0%) L/h"}, {"measurement": "Q", "setting": "[3]; [6]", "value": "0.0895 (49.9%) L/h"}, {"measurement": "Vc", "setting": "[3]; [6]", "value": "0.383 (74.7%) L"}, {"measurement": "Vp", "setting": "[3]; [6]", "value": "3.40 (51.5%) L"}]}]}
